Test results taken from US10570149B2, “Tricyclic heterocylic derivatives” (MERCK PATENT GMBH, priority 2016, dated 2020).

tested on: phosphorylation of H2AX (gH2AX) in U2OS-TopBP1-ER cells; experiment: gH2AX-TopBP1ER cellular assay; assay type: cell-based; conditions: Table 1, class symbols, 4-OHT
From the text: gH2AX-TopBP1ER Cellular Assay
ATR activity is restricted to replicating cells and many of its targets can also be phosphorylated by other PIKKs. These restrictions have limited the development of selective cellular assays in the past. In order to overcome these limitations, a previously developed genetically engineered cellular system in which ATR, and only ATR, can be activated at will in every cell (Toledo et al Genes Dev. 22, 297-302 2008) was used. In this system, the addition of 4-hydroxytamoxifen (4-OHT), promotes the nuclear translocation of a fragment of TopBP1 which then activates ATR. The phosphorylation of H2AX that follows 4-OHT addition in these cells is a direct and selective readout of ATR activity, which is not influenced by the rest of PIKKs. This property has been used in a screen for compounds with ATR inhibitory capacity. U2OS-TopBP1-ER cells stably express the TopBP1 activation domain (aa 978-1286) fused to a mutated estrogen receptor ligand binding domain. Nuclear accumulation of the TopBP1-ER-LBD fusion protein is induced by the synthetic ER antagonist 4-hydroxytamoxifen (4-OHT) (and not by natural ER agonists) mediating specific ATR activation that is independent of DNA damage or cell cycle. In the assay phosphorylation of the ATR substrate H2AX (“gH2AX”) at Serin 139 is detected using an immune-cytochemical procedure and high content imaging. For the assay U2OS-TopBP1-ER cells are plated in culture medium (DMEM high Glucose (no phenol red), 2 mM Glutamax, 1 mM Pyruvate, 10% FCS into Greiner 384 well plates, black, μclear #781090 (4000 cells/well/30 μl) and incubated for at least 20 hours at 37° C., 10% CO2 and 90% rH. Diluted test compounds (1 nM-30 μM final) and 4-OHT (1 μM final) are added simultaneously and cells are incubated for 2 h at 37° C. After fixation with 4% formaldehyde and permeabilisation with 0.2% Triton X-100 a complete immunocytochemical procedure is performed using a specific anti-gH2AX-antibody (Millipore 05-636, clone JBW301) and fluorescently labelled secondary antibody (Alexa Fluor® 488 goat anti-mouse F(ab′)2 fragment, Invitrogen A11017) and parallel nuclear staining for cell counting. The nuclear localised gH2AX signal is detected on an ImageXpress Ultra confocal high content reader and reported as % positive cells (nuclei).

IC50 [nM] | SMILES
10 to 100 | C[C@@H]1COC[C@H]2COc3c(nc(-c4ccnc5[nH]ccc45)nc3C(C)(C)S(C)(=O)=O)N21 [A13, (6R,8aS)-1-(1-Methanesulfonyl-1-methyl-ethyl)-5-methyl-3-(1H-pyrrolo[2,3-b]pyridin-4-yl)-5,6,8a,9-tetrahydro-8H-7,10-dioxa-2,4,4b-triaza-phenanthrene]
10 to 100 | C[C@@H]1COC[C@H]2COc3c(nc(-c4c(N)cnc5[nH]ccc45)nc3C(C)(C)S(C)(=O)=O)N21 [A20, 4-[(4bR,8S)-1-(1-Methanesulfonyl-1-methyl-ethyl)-5-methyl-5,6,8a,9-tetrahydro-8H-7,10-dioxa-2,4,4b-triaza-phenanthren-3-yl]-1H-pyrrolo[2,3-b]pyridin-5-ylamine]

SMILES | IC50 [nM]
CNc1cnc2[nH]ccc2c1-c1nc2c(c(C(C)(C)S(C)(=O)=O)n1)OC[C@@H]1COC[C@@H](C)N21 [A1, {4-[(S)-1-(1-Methanesulfonyl-1-methyl-ethyl)-5-(R)-methyl-5,6,8a,9-tetrahydro-8H-7,10-dioxa-2,4,4b-triaza-phenanthren-3-yl]-1H-pyrrolo[2,3-b]pyridin-5-yl}-methyl-amine] | 10 to 100
